According to ChEMBL document CHEMBL1255318, “Effect of low-dose ritonavir on the pharmacokinetics of the CXCR4 antagonist AMD070 in healthy volunteers” (Antimicrob Agents Chemother, 2008):

Legend:
Type in all cases: ADME, organism-based
[1] = Tmax in […] at […], po administered as single dose measured on day 1 by HPLC; parameters: route oral; conditions: human, in vivo
[2] = Oral bio availability in rat in presence of ritonavir; conditions: in vivo
[3] = Apparent volume of distribution during terminal phase in […] at […], po administered as single dose measured on day 17 by HPLC in presence of 29 doses of […]; conditions: human, in vivo, read-out: Vz/F
[4] = Cmax in rat in presence of ritonavir; conditions: in vivo
[5] = Tmax in […] at […], po administered as single dose measured on day 3 by HPLC in presence of […]; conditions: human, in vivo
[6] = AUC (0 to infinity) in […] at […], po administered as single dose measured on day 3 by HPLC in presence of […]; parameters: time infinity, route oral; conditions: human, plasma
[7] = Cmax in […] at […], po administered as single dose measured on day 1 by HPLC; parameters: route oral; conditions: human, in vivo
[8] = Cmax in […] at […], po administered as single dose measured on day 17 by HPLC in presence of 29 doses of […]; parameters: route oral; conditions: human, in vivo
[9] = Apparent volume of distribution during terminal phase in […] at […], po administered as single dose measured on day 1 by HPLC; parameters: route oral; conditions: human, in vivo, read-out: Vz/F
[10] = Cmax in […] at […], po administered as single dose measured on day 3 by HPLC in presence of […]; parameters: route oral; conditions: human, in vivo
[11] = AUC (0 to infinity) in […] at […], po administered as single dose measured on day 17 by HPLC in presence of 29 doses of […]; parameters: route oral, time infinity; conditions: human, plasma
[12] = Tmax in […] at […], po administered as single dose measured on day 17 by HPLC in presence of 29 doses of […]; conditions: human, in vivo
[13] = AUC in rat in presence of ritonavir; conditions: plasma
[14] = AUC (0 to infinity) in […] at […], po administered as single dose measured on day 1 by HPLC; parameters: route oral, time infinity; conditions: human, plasma
[15] = Apparent volume of distribution during terminal phase in […] at […], po administered as single dose measured on day 3 by HPLC in presence of […]; conditions: human, in vivo, read-out: Vz/F

SMILES: NCCCCN(Cc1nc2ccccc2[nH]1)[C@H]1CCCc2cccnc21 [MAVORIXAFOR]
- Tmax [1]: 3 h
- bioavailability [2]: 66%
- Vd/F [3]: 3930 L
- Cmax [4]: 158 ng/mL
- Tmax [5]: 2 h
- AUC(0-inf) [6]: 1640 ng·h/mL
- Cmax [7]: 256 ng/mL
- Cmax [8]: 333 ng/mL
- Vd/F [9]: 4200 L
- Cmax [10]: 362 ng/mL
- AUC(0-inf) [11]: 1200 ng·h/mL
- Tmax [12]: 1 h
- AUC [13]: 58 ng·h/mL
- AUC(0-inf) [14]: 934 ng·h/mL
- Vd/F [15]: 3450 L
